# Like-named read-outs stand apart in the source and are kept apart here.
# Columns and labels:
# Fatty Acid Synthetase = biological target: T1, Fatty Acid Synthetase (Mus musculus, UniProt P19096); assay: In vitro effect on fatty acid synthetase; type: biochemical; conditions: Table 2, N = 6, x ± S.D.
# T1 construct: gm wet tissue/30 min; from tissue
# [1] = Hypertrophy of the adrenal; design: species or system mice; conditions: mouse, in vivo
# [2] = tested on: ovariectomized immature females; assay: Uterotropic effects in ovariectomized immature females; type: in vivo, mice; conditions: 20 mg/kg
# serum triglyceride = assay: Serum triglyceride levels of male mice (Hycel commercial kits); type: in vivo, male CF1 mice; conditions: Mus musculus, ip, 336 h
# Method: (§1) For hypolipidemic activity, the compounds were tested at 20 mg/kg/day administered I.P. to male CF1 mice (~30 g). On days 9 and 16 blood was collected by tail-vein bleeding. Serum cholesterol was determined by the Liebermann-Burchard reaction. Serum triglyceride levels were determined using the Hycel commercial kits on a separate group of mice, which were bled on day 14.
# Citrate Lyase = biological target: T2, Citrate Lyase (Mus musculus, UniProt Q91V92); assay: In vitro effect on citrate lyase; type: biochemical; conditions: Table 2, N = 6, x ± S.D., control 30.5 mg of citrate hydrolyzed/gm wet tissue/30 min.
# T2 construct: 30.5 mg of citrate hydrolyzed/gm wet tissue/30 min; from tissue
# T2 sequence (Q91V92 1-1091): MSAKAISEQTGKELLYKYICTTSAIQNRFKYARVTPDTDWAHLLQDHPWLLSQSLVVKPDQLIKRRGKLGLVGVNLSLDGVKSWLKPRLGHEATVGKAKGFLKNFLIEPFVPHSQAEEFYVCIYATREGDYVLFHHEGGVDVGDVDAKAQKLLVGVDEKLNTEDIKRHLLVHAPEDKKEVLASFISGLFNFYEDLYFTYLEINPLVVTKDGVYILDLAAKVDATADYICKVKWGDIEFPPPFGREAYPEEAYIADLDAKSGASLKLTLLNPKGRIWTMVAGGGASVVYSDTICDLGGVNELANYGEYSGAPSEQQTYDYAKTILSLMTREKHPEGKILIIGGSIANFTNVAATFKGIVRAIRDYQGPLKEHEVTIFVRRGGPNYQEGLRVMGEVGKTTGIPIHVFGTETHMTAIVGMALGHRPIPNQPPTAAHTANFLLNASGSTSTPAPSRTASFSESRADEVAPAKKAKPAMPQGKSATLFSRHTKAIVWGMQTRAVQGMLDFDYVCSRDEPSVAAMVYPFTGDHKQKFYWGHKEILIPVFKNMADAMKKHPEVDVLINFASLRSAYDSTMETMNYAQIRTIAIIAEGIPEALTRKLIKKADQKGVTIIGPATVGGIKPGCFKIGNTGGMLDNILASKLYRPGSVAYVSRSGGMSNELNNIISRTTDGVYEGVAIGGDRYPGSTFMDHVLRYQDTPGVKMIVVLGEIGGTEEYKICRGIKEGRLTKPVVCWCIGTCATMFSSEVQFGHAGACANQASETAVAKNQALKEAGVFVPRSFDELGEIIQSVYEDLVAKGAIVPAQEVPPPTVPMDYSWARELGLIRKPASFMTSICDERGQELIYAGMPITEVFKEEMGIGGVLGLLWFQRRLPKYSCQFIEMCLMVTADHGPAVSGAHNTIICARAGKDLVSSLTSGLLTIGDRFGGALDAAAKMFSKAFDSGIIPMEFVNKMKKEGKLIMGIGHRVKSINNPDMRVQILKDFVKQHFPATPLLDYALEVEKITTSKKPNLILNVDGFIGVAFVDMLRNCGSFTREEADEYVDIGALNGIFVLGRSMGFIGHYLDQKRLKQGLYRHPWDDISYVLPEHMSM
# Acetyl-CoA Carboxylase = biological target: T3, Acetyl-CoA Carboxylase (Mus musculus, UniProt Q5SWU9); assay: In vitro acetyl coenzyme A carboxylase activity (method of Greenspan and Lowenstein); type: biochemical; conditions: Table 2, N = 6, x ± S.D., control 32,010 dpm/gm wet tissue/30 min.
# T3 construct: 32,010 dpm/gm wet tissue/30 min; from tissue
# mice = assay: Acute toxicity (LD50) in mice; type: in vivo; conditions: 2 g/kg
# Excerpt: (§2) They also are non-toxic. […] Moreover, there is no evidence that the weight of any of the major organs is altered as a result of treatment with compounds used in the invention.
# [3] = Acute toxicity (LD50) in mice; type: in vivo; conditions: mouse, in vivo
# Excerpt: as §2
# [4] = Size of vas deferens, vesicular or testes after 16 day treatment in mice; type: in vivo; conditions: 16 day treatment at 10 (mg/kg)/day
# serum cholesterol = assay: Serum cholesterol of male CF1 mice (Liebermann-Burchard reaction); type: in vivo; conditions: Mus musculus, ip
# Method: as §1
# Acetyl-CoA Synthetase = biological target: T4, Acetyl-CoA Synthetase (Mus musculus, UniProt Q9QXG4); assay: In vitro acetyl coenzyme A synthetase activity (method of Goodridge); type: biochemical, mice; conditions: for Acetyl-CoA Synthetase: Table 2, N = 6, x ± S.D., control 28.5 mg acetyl CoA formed/gm wet tissue/30 min.; for in vitro AcCoA synthetase: Table 3, N = 6, control 10.8 mg/g wet tissue
# T4 construct: gm wet tissue/30 min; from tissue
# T4 sequence (Q9QXG4 whole entry): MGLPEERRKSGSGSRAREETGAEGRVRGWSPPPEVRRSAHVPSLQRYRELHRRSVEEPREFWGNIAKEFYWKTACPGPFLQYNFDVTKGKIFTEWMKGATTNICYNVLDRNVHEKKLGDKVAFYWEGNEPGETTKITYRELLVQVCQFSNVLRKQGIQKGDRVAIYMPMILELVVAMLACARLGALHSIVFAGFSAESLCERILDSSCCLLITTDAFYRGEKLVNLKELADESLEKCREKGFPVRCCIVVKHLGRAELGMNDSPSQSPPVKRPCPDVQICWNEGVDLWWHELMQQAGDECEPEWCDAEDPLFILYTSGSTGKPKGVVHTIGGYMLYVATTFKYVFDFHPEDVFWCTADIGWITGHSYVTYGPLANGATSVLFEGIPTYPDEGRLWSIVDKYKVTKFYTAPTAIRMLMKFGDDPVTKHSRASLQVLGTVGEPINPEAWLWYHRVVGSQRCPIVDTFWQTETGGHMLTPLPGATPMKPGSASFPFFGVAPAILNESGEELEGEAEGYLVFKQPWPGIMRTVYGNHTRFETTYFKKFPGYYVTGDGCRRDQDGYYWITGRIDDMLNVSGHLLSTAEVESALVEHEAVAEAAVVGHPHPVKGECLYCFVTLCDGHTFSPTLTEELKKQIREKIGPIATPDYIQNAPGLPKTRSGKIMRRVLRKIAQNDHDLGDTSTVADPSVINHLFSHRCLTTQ
# [5] = Table 1, 20 mg/kg/day I.P., male mice, N = 6, 14th day, control value 137 mg %, read-out: Serum Triglyceride, 14th day
# [6] = Table 3, mice, N = 6, control 138 mg %, read-out: serum triglycerides
# [7] = 216 h, Table 1, 20 mg/kg/day I.P., male CF1 mice, N = 6, 9th day, control value 118 mg %, read-out: Serum Cholesterol, 9th day
# [8] = 216 h, Table 3, mice, N = 6, 9th day, control 115 mg %, read-out: serum cholesterol, 9th day
# [9] = 384 h, Table 1, 20 mg/kg/day I.P., male CF1 mice, N = 6, 16th day, control value 122 mg %, read-out: Serum Cholesterol, 16th day
# [10] = 384 h, Table 3, mice, N = 6, 16th day, control 118 mg %, read-out: serum cholesterol, 16th day
# T1 sequence (P19096 whole entry): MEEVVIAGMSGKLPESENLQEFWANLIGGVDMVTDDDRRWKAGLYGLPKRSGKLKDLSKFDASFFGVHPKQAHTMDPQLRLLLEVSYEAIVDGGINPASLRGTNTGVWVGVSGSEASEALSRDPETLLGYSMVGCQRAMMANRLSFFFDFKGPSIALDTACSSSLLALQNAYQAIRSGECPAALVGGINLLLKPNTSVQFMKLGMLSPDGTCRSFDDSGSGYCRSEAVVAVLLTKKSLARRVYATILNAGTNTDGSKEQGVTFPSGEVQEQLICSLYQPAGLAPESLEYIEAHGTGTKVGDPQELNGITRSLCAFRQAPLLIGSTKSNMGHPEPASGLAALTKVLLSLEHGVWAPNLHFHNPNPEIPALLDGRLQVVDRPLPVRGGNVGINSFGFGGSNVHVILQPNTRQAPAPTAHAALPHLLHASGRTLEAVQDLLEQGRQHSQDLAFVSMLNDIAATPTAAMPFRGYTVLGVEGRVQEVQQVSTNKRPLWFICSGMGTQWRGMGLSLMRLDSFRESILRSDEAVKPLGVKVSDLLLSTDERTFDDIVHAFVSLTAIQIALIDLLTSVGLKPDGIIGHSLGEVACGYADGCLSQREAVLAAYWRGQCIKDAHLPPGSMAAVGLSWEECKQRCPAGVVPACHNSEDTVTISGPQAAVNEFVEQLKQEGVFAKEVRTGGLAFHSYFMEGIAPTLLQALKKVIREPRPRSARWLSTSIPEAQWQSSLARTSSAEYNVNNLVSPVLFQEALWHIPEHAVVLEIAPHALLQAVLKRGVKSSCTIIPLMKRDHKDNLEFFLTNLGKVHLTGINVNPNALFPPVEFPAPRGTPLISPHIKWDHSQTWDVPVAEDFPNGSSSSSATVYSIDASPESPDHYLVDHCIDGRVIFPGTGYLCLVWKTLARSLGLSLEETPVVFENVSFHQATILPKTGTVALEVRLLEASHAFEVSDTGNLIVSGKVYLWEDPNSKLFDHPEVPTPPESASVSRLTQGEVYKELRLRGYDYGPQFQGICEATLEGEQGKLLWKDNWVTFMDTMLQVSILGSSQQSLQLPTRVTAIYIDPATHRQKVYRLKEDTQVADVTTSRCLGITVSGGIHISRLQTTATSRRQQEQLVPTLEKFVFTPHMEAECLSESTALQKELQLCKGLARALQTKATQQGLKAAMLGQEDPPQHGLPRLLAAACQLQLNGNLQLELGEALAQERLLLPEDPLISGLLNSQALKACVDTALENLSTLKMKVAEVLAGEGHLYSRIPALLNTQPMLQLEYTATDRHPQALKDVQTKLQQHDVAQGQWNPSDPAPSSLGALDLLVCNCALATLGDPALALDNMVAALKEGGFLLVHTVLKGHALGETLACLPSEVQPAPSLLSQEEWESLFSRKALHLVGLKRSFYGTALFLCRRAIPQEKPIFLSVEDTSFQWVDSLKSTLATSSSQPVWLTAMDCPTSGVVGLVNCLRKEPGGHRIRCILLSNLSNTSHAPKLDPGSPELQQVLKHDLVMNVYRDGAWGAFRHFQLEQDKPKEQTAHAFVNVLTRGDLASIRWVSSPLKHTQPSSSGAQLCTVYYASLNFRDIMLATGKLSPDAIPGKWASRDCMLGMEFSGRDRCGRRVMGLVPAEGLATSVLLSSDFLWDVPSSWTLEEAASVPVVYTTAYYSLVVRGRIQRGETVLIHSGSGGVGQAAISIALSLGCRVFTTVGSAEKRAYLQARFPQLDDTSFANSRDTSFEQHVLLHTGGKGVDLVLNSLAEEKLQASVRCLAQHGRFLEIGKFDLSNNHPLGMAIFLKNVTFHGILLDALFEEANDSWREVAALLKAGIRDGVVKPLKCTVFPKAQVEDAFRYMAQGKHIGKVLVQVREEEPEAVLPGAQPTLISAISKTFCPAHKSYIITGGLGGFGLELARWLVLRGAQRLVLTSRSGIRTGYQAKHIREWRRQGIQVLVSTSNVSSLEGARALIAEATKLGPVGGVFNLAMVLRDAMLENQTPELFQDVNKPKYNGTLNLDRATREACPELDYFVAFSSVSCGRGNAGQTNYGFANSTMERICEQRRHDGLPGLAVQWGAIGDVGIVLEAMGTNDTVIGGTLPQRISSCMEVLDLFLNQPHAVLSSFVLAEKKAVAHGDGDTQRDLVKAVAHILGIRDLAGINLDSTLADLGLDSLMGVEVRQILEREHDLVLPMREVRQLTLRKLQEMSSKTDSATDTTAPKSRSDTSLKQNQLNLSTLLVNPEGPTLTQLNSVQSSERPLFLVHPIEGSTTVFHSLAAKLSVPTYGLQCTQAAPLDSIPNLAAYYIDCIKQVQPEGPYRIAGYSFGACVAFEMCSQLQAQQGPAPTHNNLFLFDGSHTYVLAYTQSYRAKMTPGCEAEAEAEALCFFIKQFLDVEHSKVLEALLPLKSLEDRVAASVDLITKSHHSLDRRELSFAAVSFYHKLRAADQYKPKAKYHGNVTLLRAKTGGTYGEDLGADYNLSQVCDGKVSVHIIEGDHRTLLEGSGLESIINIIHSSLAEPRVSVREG
in vitro AcCoA synthetase (Acetyl-CoA Synthetase) [% Control],Structure (SMILES),Fatty Acid Synthetase (Fatty Acid Synthetase) [% Control],hypertrophy of the adrenal [1],uterotropic effects [2],response vs control in vivo at 20 mg/kg/day (serum triglyceride; [5]) [%],response vs control in vivo at 20 mg/kg/day (serum triglyceride; [6]) [%],Citrate Lyase (Citrate Lyase) [% Control],Acetyl-CoA Carboxylase (Acetyl-CoA Carboxylase) [% Control],deaths (mice),LD50 [3] [mg/kg],"decrease in the size of the vas deferens, vesicular or testes [4]",response vs control in vivo at 20 mg/kg/day (serum cholesterol; [7]) [%],response vs control in vivo at 20 mg/kg/day (serum cholesterol; [8]) [%],response vs control in vivo at 20 mg/kg/day (serum cholesterol; [9]) [%],response vs control in vivo at 20 mg/kg/day (serum cholesterol; [10]) [%],Acetyl-CoA Synthetase (Acetyl-CoA Synthetase) [% Control]
57 ± 7,O=C(O)CCN1C(=O)c2ccccc2C1=O [3-N--Phthalimidopropionic Acid],107 ± 7,,,58 ± 9,58 ± 10,87 ± 6,18 ± 4,,,,74 ± 10,74 ± 7,55 ± 12,55 ± 11,57 ± 10
82 ± 7,CCCCN1C(=O)c2ccccc2C1=O [N--n-Butylphthalimide],75 ± 10,,,82 ± 10,82 ± 16,72 ± 9,76 ± 3,,,,72 ± 11,72 ± 10,54 ± 6,54 ± 6,44 ± 11
,O=C1NC(=O)c2ccccc21 [Phthalimide],105 ± 8,,,44 ± 8,,42 ± 6,8 ± 4,,,,63 ± 13,,57 ± 7,,70 ± 8
,O=C1NS(=O)(=O)c2ccccc21 [Saccharin],93 ± 5,,,51 ± 16,,65 ± 6,9 ± 2,,,,68 ± 11,,67 ± 10,,61 ± 7
,O=C1CCC(=O)N1 [Succinimide],98 ± 9,,,68 ± 7,,38 ± 3,87 ± 7,,,,78 ± 9,,73 ± 12,,74 ± 6

Structure (SMILES),in vitro AcCoA synthetase (Acetyl-CoA Synthetase) [% Control],Fatty Acid Synthetase (Fatty Acid Synthetase) [% Control],hypertrophy of the adrenal [1],uterotropic effects [2],response vs control in vivo at 20 mg/kg/day (serum triglyceride; [5]) [%],response vs control in vivo at 20 mg/kg/day (serum triglyceride; [6]) [%],Citrate Lyase (Citrate Lyase) [% Control],Acetyl-CoA Carboxylase (Acetyl-CoA Carboxylase) [% Control],deaths (mice),LD50 [3] [mg/kg],"decrease in the size of the vas deferens, vesicular or testes [4]",response vs control in vivo at 20 mg/kg/day (serum cholesterol; [7]) [%],response vs control in vivo at 20 mg/kg/day (serum cholesterol; [8]) [%],response vs control in vivo at 20 mg/kg/day (serum cholesterol; [9]) [%],response vs control in vivo at 20 mg/kg/day (serum cholesterol; [10]) [%],Acetyl-CoA Synthetase (Acetyl-CoA Synthetase) [% Control]
CC(=O)CN1C(=O)c2ccccc2C1=O [1-N--Phthalimidopropan-2-one],58 ± 7,91 ± 9,no hypertophy of the adrenal,nor did the drug demonstrate uterotropic effects,48 ± 10,48 ± 10,76 ± 4,24 ± 4,no deaths were observed at this concentration,> 2000,"no decrease in the size of the vas deferens, vesicular or testes",80 ± 16,80 ± 16,67 ± 12,67 ± 12,58 ± 7

# — US4395417A, “Antihyperlipidemic compositions” (Research Corporation, priority 1980, dated 1983)
